# Legend:
# Format in all cases: cell-based
# [1] = test system: AQP3; test: AQP3 expression reduced by ultraviolet rays in HaCaT cells (RT-PCR); conditions: 15 mJ/cm^2 UV, 10 μM, 50 μM or 1000 μM peptide, 8 hours
# Method: In this example, the aim was to confirm the effect of the peptide according to an embodiment on the recovery of skin barrier factors in damaged skin cells by evaluating changes in the levels of skin barrier factors in skin cells reduced by ultraviolet irradiation.
# Specifically, HaCaT cells were seeded in a 6-well plate at a density of 5×10^5 cells/well and cultured for 24 hours. Next, the cells were washed once with serum-free DMEM media, and 10 μM, 50 μM or 1000 μM of the peptide consisting of the amino acid sequence of SEQ ID NO: 1 was dispensed into 1 mL of the serum-free media, and cultured in a CO2 incubator at 37° C. for 1 hour. Next, the above culture was transferred to an e-tube, mixed with 1 ml of PBS, and dispensed into a well plate. Next, using a UV irradiator (VILBER LOURMAT, Cat No.: 3102-BSU, France), 15 mJ/cm^2 ultraviolet rays were irradiated to the HaCaT cells. Next, the PBS in the well plate was removed, 900 μL of the culture medium in which the peptides were dispensed was added, and the plate was cultured in a CO2 incubator at 37° C. for 8 hours. Next, the culture was washed twice with PBS, and RNA was isolated from the culture using easy blue (iNtRON, Cat. No.: 17061, Korea). Next, using an RT kit (Enzynomics, Cat. NO.: RT200, Korea), the isolated RNA was reverse transcribed to synthesize the respective cDNA. […]
# [2] = test system: reactive oxygen species in NIH3T3 cells; test: Reactive oxygen species increased by ultraviolet rays in NIH3T3 cells (DCF-DA, flow cytometry); conditions: fibroblasts (NIH3T3); 6 J/cm^2 UV; 10 μM, 50 μM or 1000 μM peptide; 24 hours
# Method: In this example, the aim was to confirm the effect of the peptide according to an embodiment on the antioxidant effect in damaged skin, by evaluating the change in the level of reactive oxygen species in skin cells increased by ultraviolet irradiation.
# Specifically, NIH3T3 cells or HaCaT cells were seeded in a 6-well plate at a density of 5×10^5 cells/well and cultured for 24 hours. Next, the cells were washed once with serum-free DMEM media, and 10 μM, 50 μM or 1000 μM of the peptide consisting of the amino acid sequence of SEQ ID NO: 1 was dispensed into 1 mL of the serum-free media, and cultured in a CO2 incubator at 37° C. for 1 hour. Next, the above culture was transferred to an e-tube, mixed with 1 ml of PBS, and dispensed into a well plate. Next, using a UV irradiator (VILBER LOURMAT, Cat No.: 3102-BSU, France), 6 J/cm^2 ultraviolet rays were irradiated to NIH3T3 cells, and 15 mJ/cm^2 ultraviolet rays were irradiated to HaCaT cells. Next, the PBS in the well plate was removed, 900 μL of the culture medium in which the peptides were dispensed was added, and the plate was cultured in a CO2 incubator at 37° C. for 24 hours. […] After washing the centrifuged cells with PBS, FL1 fluorescence values were measured through flow cytometry (FACS, BD, USA). […]
# [3] = test system: sirtuin-1 (SIRT-1); test: SIRT-1 expression by RT-PCR in HaCaT cells; conditions: 10 μM, 50 μM or 1000 μM peptide, 24 hours
# Method: In this example, the aim was to confirm the effect of the peptides according to an example on strengthening the skin barrier, by evaluating the expression levels of sirtuin-1 (SIRT-1) or aquaporin-3 (AQP3).
# Specifically, HaCaT cells were seeded in a 6-well plate at a density of 3×10^5 cells/well and cultured for 24 hours. Next, the cells were washed once with serum-free DMEM media, and 10 μM, 50 μM or 1000 μM of the peptide consisting of the amino acid sequence of SEQ ID NO: 1 was dispensed into 1 mL of the serum-free media, and cultured in a CO2 incubator at 37° C. for 24 hours. Next, the culture was washed twice with PBS, and RNA was isolated from the culture using easy blue (iNtRON, Cat. No.: 17061, Korea). Next, using an RT kit (Enzynomics, Cat. NO.: RT200, Korea), the isolated RNA was reverse transcribed to synthesize the respective cDNA. Next, using the synthesized 1 ug cDNA, primers for SIRT-1 or AQP3, and a PCR kit (Enzynomics, Cat. No.: P581T, Korea), polymerase chain reaction (PCR) was performed. Meanwhile, in this example, an untreated group was used as the control group, and a group to which EGF was added was used as a positive control group, the nucleotide sequences of the primers used in this example are shown in Table 3 below.
# [4] = test system: Col1a1; test: Col1a1 expression by RT-PCR in NIH3T3 cells; conditions: 10 μM, 50 μM or 1000 μM peptide, 24 hours, vs untreated group
# Method: In this example, the aim was to confirm the effect of the peptide according to an example on improving endogenous skin aging, including improvement of wrinkles and enhancement of elasticity, etc., by evaluating the expression levels of collagen type 1 (Col1a1), fibronectin, elastin, and hyaluronic acid, which are known components of the dermis.
# Specifically, NIH3T3 cells were seeded in a 6-well plate at a density of 3×10^5 cells/well and cultured for 24 hours. Next, the cells were washed once with serum-free DMEM media, and 10 μM, 50 μM or 1000 μM of a peptide consisting of an amino acid sequence of SEQ ID NO: 1 was dispensed into 1 mL of the serum-free media, and cultured in a CO2 incubator at 37° C. for 24 hours. Next, the culture was washed twice with PBS, and RNA was isolated from the culture using easy blue (iNtRON, Cat. No.: 17061, Korea). Next, using an RT kit (Enzynomics, Cat. NO.: RT200, Korea), the isolated RNA was reverse transcribed to synthesize the respective cDNA. Next, using the synthesized 1 ug cDNA, primers for Colla1, fibronectin, or elastin, and a PCR kit (Enzynomics, Cat. No.: P581T, Korea), polymerase chain reaction (PCR) was performed. […]
substance,measurement,setting,value
GPRGDP [SEQ ID NO: 1],expression of AQP3 reduced by ultraviolet irradiation,[1],increased or restored
same,level of reactive oxygen species increased by ultraviolet irradiation,[2],reduced
same,expression of skin barrier factor SIRT-1,[3],increases
same,expression of Col1a1,[4],increased

# Reference: patent US20260199213A1, “PEPTIDE HAVING ACTIVITY OF IMPROVING STATE OF SKIN, AND USE THEREOF” (CAREGEN CO., LTD., priority 2022, published 2026)
